# Experimental data reported in US4024277A, “Phosphoro-aminosulfenyl derivatives of benzofuran carbamates” (priority 1975, dated 1977).
# Legend:
# southern armyworm [1] = assay: Seven-day residual insecticidal activity, southern armyworm; assay type: in vivo, Spodoptera eridania (Cramer); conditions: Spodoptera eridania, 48-hour exposure, read-out: % Kill, Southern Armyworm
# Description: (§1) b. Seven-Day Residual Insecticidal Activity
# (§2) In this test, a candidate insecticide, in solution, is applied to uninfested plants or containers by dipping or spraying. A seven-day holding period is necessary before infestation. A 48-hour exposure period is observed before evaluation of the tests. The insect species used in this type of test are the same as those listed under initial activity.
# German cockroaches [2] = assay: Level I immersion test, German cockroaches; assay type: in vivo, Blattella germanica (Linnaeus); conditions: GC (male), 5 mg/milliliter; for mortality at 5000 µg/mL: Blattella germanica, 18-24 hours, read-out: % Kill; for % Knockdown: 30 minutes after immersion
# Protocol: (§3) e. Insecticidal Activity Against House Flies and German Cockroaches
# (§4) Compounds of this invention were tested in a Level I test at 5 mg. of active compounds/milliliter of a solution of 40% acetone -- 60% water.
# (§5) In this test a group of ten house flies (Musca domestica Linnaeus) were completely immersed in 25 ml. of the insecticidal test solution. After 10 seconds of immersion, the test solution is removed. The house flies are then transferred to holding cages lines with paper toweling. In the case of the house flies, the knockdown counts were recorded 10 minutes after termination of the immersion. The percent kill was recorded after 18-24 hours.
# The same Level I test technique was employed using male German cockroaches [Blattella germanica (Linnaeus)]. In this case, the knockdown counts were recorded 30 minutes after the termination of the immersion.
# large milkweed bug [3] = assay: Seven-day residual insecticidal activity, milkweed bug; assay type: in vivo, Oncopeltus fasciatus (Dallas); conditions: Oncopeltus fasciatus, 48-hour exposure, read-out: % Kill, Milkweed Bug
# Description: as §1, §2
# house flies = assay: Level I immersion test, house flies; assay type: in vivo, Musca domestica Linnaeus; conditions: HF, 5 mg/milliliter; for % Knockdown: 10 minutes after immersion; for mortality at 5000 µg/mL: Musca domestica, after 18-24 hours, read-out: % Kill
# Protocol: as §3, §4, §5
# pea aphid [4] = assay: Seven-day residual insecticidal activity, pea aphid; assay type: in vivo, Acyrthosiphon pisum (Harris); conditions: Acyrthosiphon pisum, 48-hour exposure, read-out: % Kill, Pea Aphid
# Description: as §1, §2
# confused flour beetle [5] = assay: Seven-day residual insecticidal activity, confused flour beetle; assay type: in vivo, Tribolium confusum Jacquelin duVal; conditions: Tribolium confusum, 48-hour exposure, read-out: % Kill, Confused Flour Beetle
# Description: as §1, §2
# pea aphid [6] = assay: Initial insecticidal activity, pea aphid; assay type: in vivo, Acyrthosiphon pisum (Harris); conditions: Acyrthosiphon pisum, 48-hour exposure, read-out: % Kill, Pea Aphid
# Description: (§6) a. Initial Insecticidal Activity
# (§7) In this test, a candidate insecticide, in solution, is applied to either infested or uninfested plants or containers by spraying or dipping. (The preferred test procedure varies with insect species. The dipping method is better than the spraying method, and vice versa, for certain species of insects. Also some species are better adapted to the test by infesting after the chemical treatment rather than before.) Once the tests have been established, a 48-hour exposure period is observed before reading the tests. Insect species included in these tests are Mexican bean beetle (Epilachna varivestis Mulsant), pea aphid [Acyrthosiphon pisum (Harris)], southern armyworm [Spodoptera eridania (Cramer)], twospotted spider mite (Tetranychus urticae Koch), large milkweed bug [Oncopeltus fasciatus (Dallas)], plum curculio [Conotrachelus nenuphar (Herbst)], confused flour beetle (Tribolium confusum Jacquelin duVal) and granary weevil [Sitophilus granarius (Linnaeus)]. Test results are set forth in Table I. A control sample, comprising the solution without the candidate insecticide, is also included.
# confused flour beetle [7] = assay: Initial insecticidal activity, confused flour beetle; assay type: in vivo, Tribolium confusum Jacquelin duVal; conditions: Tribolium confusum, 48-hour exposure, read-out: % Kill, Confused Flour Beetle
# Description: as §6, §7
# German cockroaches [8] = assay: Level II topical test, German cockroaches; assay type: in vivo, Blattella germanica (Linnaeus); conditions: GC (male), one microgram topically per insect
# Protocol: as §3
# (§8) In a Level II test the compounds of this invention were tested for insecticidal activity against female house flies (resistant) and male German cockroaches. Ten insects were anesthetized with carbon dioxide and placed in a container for about 2 hours, during which time the insects recovered to normal activity. The container confining the insects is fitted with a plunger which is used to force the insects against a nylon mesh at one end of the container. One microliter of an acetone solution containing one microgram of the candidate insecticide was applied topically to each insect. The plunger was withdrawn and the insects were allowed to move freely about the container. Knockdown counts were recorded 10 minutes after treatment of house flies and 30 minutes after treatment of cockroaches.
# Mexican bean beetle [9] = assay: Initial insecticidal activity, Mexican bean beetle; assay type: in vivo, Epilachna varivestis Mulsant; conditions: Epilachna varivestis, 48-hour exposure, read-out: % Kill, Mexican Bean Beetle
# Description: as §6, §7
# Mexican bean beetle [10] = assay: Seven-day residual insecticidal activity, Mexican bean beetle; assay type: in vivo, Epilachna varivestis Mulsant; conditions: Epilachna varivestis, 48-hour exposure, read-out: % Kill, Mexican Bean Beetle
# Description: as §1, §2
# [11] = tested on: female house flies (resistant); assay: Level II topical test, house flies; assay type: in vivo, Musca domestica Linnaeus; conditions: HF (female, resistant), one microgram topically per insect
# Protocol: as §3, §8
# southern armyworm [12] = assay: Initial insecticidal activity, southern armyworm; assay type: in vivo, Spodoptera eridania (Cramer); conditions: Spodoptera eridania, 48-hour exposure, read-out: % Kill, Southern Armyworm
# Description: as §6, §7
# twospotted spider mite = assay: Initial insecticidal activity, twospotted spider mite; assay type: in vivo, Tetranychus urticae Koch; conditions: Tetranychus urticae, 48-hour exposure, read-out: % Kill, Twospotted Spider Mite
# Description: as §6, §7
# large milkweed bug [13] = assay: Initial insecticidal activity, milkweed bug; assay type: in vivo, Oncopeltus fasciatus (Dallas); conditions: Oncopeltus fasciatus, 48-hour exposure, read-out: % Kill, Milkweed Bug
# Description: as §6, §7
# plum curculio = assay: Initial insecticidal activity, plum curculio; assay type: in vivo, Conotrachelus nenuphar (Herbst); conditions: Conotrachelus nenuphar, 48-hour exposure, read-out: % Kill, Plum Curculio
# Description: as §6, §7
structure (smiles),measurement,setting,value
"CCOP(=O)(OCC)N(C)SN(C)C(=O)Oc1cccc2c1OC(C)(C)C2 [Example 1(c), 2,3-dihydro-2,2-dimethyl-7-benzofuranyl [(N-diethoxyphosphinyl) (N-methyl)-aminosulfenyl][methyl]carbamate]",mortality at 39 ppm,southern armyworm [1],0%
same,mortality at 156 ppm,southern armyworm [1],5%
same,mortality at 1250 ppm,southern armyworm [1],95%
same,mortality at 5000 µg/mL,German cockroaches [2],100%
same,% Knockdown,German cockroaches [2],100%
same,mortality at 39 ppm,large milkweed bug [3],55%
same,mortality at 156 ppm,large milkweed bug [3],100%
same,mortality at 1250 ppm,large milkweed bug [3],100%
same,% Knockdown,house flies,100%
same,mortality at 5000 µg/mL,house flies,100%
same,mortality at 39 ppm,pea aphid [4],0%
same,mortality at 156 ppm,pea aphid [4],0%
same,mortality at 1250 ppm,pea aphid [4],100%
same,mortality at 39 ppm,confused flour beetle [5],10%
same,mortality at 156 ppm,confused flour beetle [5],18%
same,mortality at 1250 ppm,confused flour beetle [5],23%
same,mortality at 39 ppm,pea aphid [6],0%
same,mortality at 156 ppm,pea aphid [6],100%
same,mortality at 1250 ppm,pea aphid [6],100%
same,mortality at 39 ppm,confused flour beetle [7],14%
same,mortality at 156 ppm,confused flour beetle [7],15%
same,mortality at 1250 ppm,confused flour beetle [7],33%
same,mortality at 0.001 mg,"German cockroaches [8]; Blattella germanica, topical, read-out: % Kill",0%
same,% Knockdown,German cockroaches [8]; 30 minutes,0%
same,mortality at 39 ppm,Mexican bean beetle [9],100%
same,mortality at 156 ppm,Mexican bean beetle [9],100%
same,mortality at 1250 ppm,Mexican bean beetle [9],100%
same,mortality at 39 ppm,Mexican bean beetle [10],38%
same,mortality at 156 ppm,Mexican bean beetle [10],89%
same,mortality at 1250 ppm,Mexican bean beetle [10],86%
same,% Knockdown,[11]; 10 minutes,0%
same,mortality at 0.001 mg,"[11]; Musca domestica, topical, read-out: % Kill",20%
same,mortality at 39 ppm,southern armyworm [12],6%
same,mortality at 156 ppm,southern armyworm [12],20%
same,mortality at 1250 ppm,southern armyworm [12],95%
same,mortality at 39 ppm,twospotted spider mite,21%
same,mortality at 156 ppm,twospotted spider mite,37%
same,mortality at 1250 ppm,twospotted spider mite,100%
same,mortality at 39 ppm,large milkweed bug [13],100%
same,mortality at 156 ppm,large milkweed bug [13],100%
same,mortality at 1250 ppm,large milkweed bug [13],100%
same,mortality at 39 ppm,plum curculio,0%
same,mortality at 156 ppm,plum curculio,15%
same,mortality at 1250 ppm,plum curculio,100%
CCCN(SN(C)C(=O)Oc1cccc2c1OC(C)(C)C2)P(=O)(Oc1ccccc1)Oc1ccccc1 [7(c)],mortality at 39 ppm,southern armyworm [1],0%
same,mortality at 156 ppm,southern armyworm [1],0%
same,mortality at 1250 ppm,southern armyworm [1],0%
same,mortality at 5000 µg/mL,German cockroaches [2],0%
same,% Knockdown,German cockroaches [2],0%
same,mortality at 39 ppm,large milkweed bug [3],26%
same,mortality at 156 ppm,large milkweed bug [3],21%
same,mortality at 1250 ppm,large milkweed bug [3],60%
same,% Knockdown,house flies,40%
same,mortality at 5000 µg/mL,house flies,0%
same,mortality at 39 ppm,pea aphid [4],0%
same,mortality at 156 ppm,pea aphid [4],0%
same,mortality at 1250 ppm,pea aphid [4],0%
same,mortality at 39 ppm,confused flour beetle [5],0%
same,mortality at 156 ppm,confused flour beetle [5],0%
same,mortality at 1250 ppm,confused flour beetle [5],0%
same,mortality at 39 ppm,pea aphid [6],11%
same,mortality at 156 ppm,pea aphid [6],0%
same,mortality at 1250 ppm,pea aphid [6],0%
same,mortality at 39 ppm,confused flour beetle [7],0%
same,mortality at 156 ppm,confused flour beetle [7],0%
same,mortality at 1250 ppm,confused flour beetle [7],0%
same,mortality at 39 ppm,Mexican bean beetle [9],95%
same,mortality at 156 ppm,Mexican bean beetle [9],94%
same,mortality at 1250 ppm,Mexican bean beetle [9],100%
same,mortality at 39 ppm,Mexican bean beetle [10],20%
same,mortality at 156 ppm,Mexican bean beetle [10],89%
same,mortality at 1250 ppm,Mexican bean beetle [10],100%
same,mortality at 39 ppm,southern armyworm [12],0%
same,mortality at 156 ppm,southern armyworm [12],29%
same,mortality at 1250 ppm,southern armyworm [12],31%
same,mortality at 39 ppm,twospotted spider mite,1%
same,mortality at 156 ppm,twospotted spider mite,6%
same,mortality at 1250 ppm,twospotted spider mite,5%
same,mortality at 39 ppm,large milkweed bug [13],5%
same,mortality at 156 ppm,large milkweed bug [13],70%
same,mortality at 1250 ppm,large milkweed bug [13],95%
same,mortality at 39 ppm,plum curculio,20%
same,mortality at 156 ppm,plum curculio,50%
same,mortality at 1250 ppm,plum curculio,65%
